# Experimental data as given in ChEMBL document CHEMBL1133255 (Bioorg Med Chem Lett, 2000).
# Tests used:
# Oryctolagus cuniculus = organism: Oryctolagus cuniculus; test: The compound was tested for its […] activity using rabbit saphenous vein (RSV) preparation; type: functional
# [1] = biological target: 5-hydroxytryptamine receptor 1B (Homo sapiens, UniProt P28222); test: Binding affinity towards cloned human 5-hydroxytryptamine 1B receptor
# [2] = biological target: 5-hydroxytryptamine receptor 1D (Homo sapiens, UniProt P28221); test: Binding affinity for human 5-hydroxytryptamine 1D receptor
# Sequence of 5-hydroxytryptamine receptor 1D (P28221 whole entry): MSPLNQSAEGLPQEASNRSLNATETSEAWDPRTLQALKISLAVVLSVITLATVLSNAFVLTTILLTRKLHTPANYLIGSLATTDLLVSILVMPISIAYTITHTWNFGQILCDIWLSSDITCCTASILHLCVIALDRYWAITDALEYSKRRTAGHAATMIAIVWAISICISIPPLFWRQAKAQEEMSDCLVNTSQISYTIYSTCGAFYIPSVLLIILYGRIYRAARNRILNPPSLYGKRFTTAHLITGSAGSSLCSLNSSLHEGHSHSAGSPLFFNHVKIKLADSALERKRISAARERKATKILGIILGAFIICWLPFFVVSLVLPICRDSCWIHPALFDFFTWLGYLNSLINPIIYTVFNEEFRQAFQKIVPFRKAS
# Sequence of 5-hydroxytryptamine receptor 1B (P28222 whole entry): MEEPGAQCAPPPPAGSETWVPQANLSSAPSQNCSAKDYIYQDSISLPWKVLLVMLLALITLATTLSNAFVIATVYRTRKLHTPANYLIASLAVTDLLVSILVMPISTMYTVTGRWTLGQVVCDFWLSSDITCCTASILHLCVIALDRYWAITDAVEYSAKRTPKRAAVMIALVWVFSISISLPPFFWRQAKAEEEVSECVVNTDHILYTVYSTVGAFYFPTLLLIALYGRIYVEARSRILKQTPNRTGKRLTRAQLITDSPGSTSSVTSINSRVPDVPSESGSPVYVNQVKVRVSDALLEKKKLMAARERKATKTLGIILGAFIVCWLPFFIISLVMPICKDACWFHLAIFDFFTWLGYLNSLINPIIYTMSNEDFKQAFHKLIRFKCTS
Structure (SMILES),EC50 (Oryctolagus cuniculus),Ki [1],Ki [2]
CNS(=O)(=O)Cc1ccc2[nH]cc(CCN(C)C)c2c1,174 nM,–,–
CC(C)(C)c1ccc2[nH]cc(CCN3CCCC3)c2c1,1170 nM,312 nM,2.5 nM
CC(C)c1ccc2[nH]cc(CCN3CCCC3)c2c1,440 nM,472 nM,5.3 nM
CC(C)c1ccc2[nH]cc(CCN(C)C)c2c1,–,14.2 nM,0.4 nM
Cc1ccc2[nH]cc(C[C@H]3CCCN3C)c2c1,102 nM,118 nM,3.5 nM
Cn1cc(CCN)c2cc(C(C)(C)C)ccc21,–,–,0.45 nM
CC(C)c1ccc2[nH]cc(C[C@H]3CCCN3C)c2c1,28.6 nM,10.4 nM,0.29 nM
CCc1ccc2[nH]cc(C[C@H]3CCCN3C)c2c1,14.7 nM,47 nM,0.97 nM
CCc1ccc2[nH]cc(CCN3CCCC3)c2c1,–,1620 nM,45 nM
CN1CCC[C@@H]1Cc1c[nH]c2ccc(C(C)(C)C)cc12,51.8 nM,15.5 nM,0.25 nM
CCc1ccc2[nH]cc(CCN(C)C)c2c1,350 nM,–,16 nM
